Positions count from the first letter of the chain named.
Experiments:
ACVR1^R206H = molecular target: T1, ACVR1^R206H (Homo sapiens, UniProt Q04771, R206H); experiment: Promega NanoBRET live-cell target engagement, ACVR1 (R206H); assay type: cell-based; details: in cellulo; NI = No inhibition at 40 μM
T1 sequence (Q04771 21-509 R206H): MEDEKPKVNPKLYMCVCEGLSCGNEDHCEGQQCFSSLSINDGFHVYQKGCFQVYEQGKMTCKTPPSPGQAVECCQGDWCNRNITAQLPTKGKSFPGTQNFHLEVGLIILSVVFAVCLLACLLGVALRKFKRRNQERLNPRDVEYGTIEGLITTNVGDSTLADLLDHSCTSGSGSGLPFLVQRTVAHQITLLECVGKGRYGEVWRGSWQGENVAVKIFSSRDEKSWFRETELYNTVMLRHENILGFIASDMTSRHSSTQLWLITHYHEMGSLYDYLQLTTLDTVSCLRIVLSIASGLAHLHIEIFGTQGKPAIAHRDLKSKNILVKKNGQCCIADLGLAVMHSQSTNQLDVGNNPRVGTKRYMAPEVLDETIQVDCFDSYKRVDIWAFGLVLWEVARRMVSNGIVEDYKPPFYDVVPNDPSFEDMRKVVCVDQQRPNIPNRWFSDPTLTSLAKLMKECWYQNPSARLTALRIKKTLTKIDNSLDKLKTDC
Source text: (§1) The Promega NanoBRET target engagement system involves cell-based competitive displacement of a fluorescent NanoBRET tracer bound reversibly to a NanoLuc fusion protein. Test compounds displace the tracer dependent on their affinity for the target and reduce […] the NanoBRET signal. […]

[1] = Metabolic stability in human liver microsomes; assay type: in vitro ADME; details: some cells add hours in brackets
Source text: (§2) Exemplary compounds of the present disclosure have been evaluated for metabolic stability in mouse and human liver microsomes.

[2] = Metabolic stability in mouse liver microsomes; assay type: in vitro ADME; details: some cells add hours in brackets
Source text: as §2

ACVR1^WT = molecular target: T2, ACVR1^WT (Homo sapiens, UniProt Q04771); experiment: Promega NanoBRET live-cell target engagement, ACVR1; assay type: cell-based; details: in cellulo; NI = No inhibition at 40 μM
T2 sequence (Q04771 21-509): T1 sequence (Q04771 21-509 R206H) with H186R
Source text: as §1

[3] = system: BMP2-induced luciferase activity in 293T-BRE-reporter cells; experiment: BMP2-induced luciferase reporter activity in 293T-BRE reporter cells; assay type: cell-based; details: 0.2, 1, 5, 25 μM, 30 min pre-treatment, 5 ng/ml BMP2, 6 hours
Protocol: BMP2-dependent luciferase reporter activation was quantified after 6 hours using the Promega BrightGLO luciferase system on a Tecan Infinity M1000 Pro plate reader.
FIG. 10 provides a bar graph depicting inhibition of BMP2-induced luciferase activity in 293T-BRE-reporter cells. Approximately 20,000 cells per well were plated in a 96-well plate and allowed to attach overnight. […] Cells were then stimulated with vehicle or 5 ng/ml BMP2 for 6 hours. Luciferase transactivation was assessed using the Promega BrightGLO luciferase system (Promega) and the signal was quantified using a plate reader (M1000 Pro).

[4] = system: pSMAD1/5 in WT fibroblasts (WT GM01652); experiment: BMP2-induced pSMAD1/5 Western blot in primary WT fibroblasts; assay type: cell-based, human; details: 1, 5, 25 μM, 30 min pre-treatment, 5 ng/mL BMP2 45 min
Protocol: (§3) FIG. 11 depicts inhibition of phosphorylated SMAD1/5 (pSMAD1/5) in primary WT and FOP fibroblasts. […] Subsequently, the fibroblasts were treated with vehicle (i.e., DMSO) or 5 ng/mL BMP2 in the presence of the inhibitors for 45 minutes. Cell lysates were then probed with antibodies against pSMAD1/5, total SMAD5, total SMAD1, and GAPDH (i.e., loading control) using a Western blot.

[5] = system: pSMAD1/5 in FOP fibroblasts (FOP GM00513); experiment: BMP2-induced pSMAD1/5 Western blot in primary FOP fibroblasts; assay type: cell-based, human; details: 1, 5, 25 μM, 30 min pre-treatment, 5 ng/mL BMP2 45 min
Protocol: as §3

ACVRL1 [6] = molecular target: T3, ACVRL1 (Homo sapiens, UniProt P37023); experiment: ThermoFisher (Lantha) kinase assay, inhibition of ACVRL1; assay type: biochemical; details: in vitro, NA = not active at 1 μM
T3 construct: purchased ThermoFisher
T3 sequence (P37023 22-503): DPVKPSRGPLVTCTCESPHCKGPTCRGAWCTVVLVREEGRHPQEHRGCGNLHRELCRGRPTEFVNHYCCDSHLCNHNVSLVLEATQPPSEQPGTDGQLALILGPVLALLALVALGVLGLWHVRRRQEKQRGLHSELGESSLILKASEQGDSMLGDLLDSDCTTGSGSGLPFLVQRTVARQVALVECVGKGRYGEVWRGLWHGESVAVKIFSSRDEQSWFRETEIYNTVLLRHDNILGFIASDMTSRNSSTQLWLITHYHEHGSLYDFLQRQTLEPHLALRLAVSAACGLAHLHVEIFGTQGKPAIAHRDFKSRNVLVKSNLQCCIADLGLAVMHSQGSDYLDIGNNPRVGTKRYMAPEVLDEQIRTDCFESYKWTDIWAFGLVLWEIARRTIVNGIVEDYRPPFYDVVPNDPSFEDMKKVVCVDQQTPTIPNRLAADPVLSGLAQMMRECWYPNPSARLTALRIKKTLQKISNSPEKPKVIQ

ACVR1 = molecular target: T4, ACVR1 (Homo sapiens, UniProt Q04771); experiment: ThermoFisher (Lantha) kinase assay, inhibition of ACVR1; assay type: biochemical; details: ThermoFisher Assay, in vitro
T4 construct: purchased ThermoFisher
T4 sequence (Q04771 21-509): T1 sequence (Q04771 21-509 R206H) with H186R

ACVRL1 [7] = molecular target: T3, ACVRL1; experiment: Promega NanoBRET live-cell target engagement, ACVRL1; assay type: cell-based; details: in cellulo; NI = No inhibition at 40 μM
Source text: The Promega NanoBRET target engagement system involves cell-based competitive displacement of a fluorescent NanoBRET tracer bound reversibly to a NanoLuc fusion protein. Test compounds displace the tracer dependent on their affinity for the target and reduce loss of the NanoBRET signal.
Further, HEK29T cells with stable expression of a BMP reporter element driving luciferase expression can be used to test inhibition of BMP-induced luciferase transactivation. […] Additionally, utilizing the HEPG2 cell system described herein, responsiveness to activin and induction of Hepcidin (HAMP) gene expression can be probed in the presence and absence of ACVR1 inhibitors, as well as the influence of tacrolimus on activin-induced hepcidin gene expression.
Thus, the in cellulo assays described herein comprise a luciferase reporter cell line system.

| SMILES | IC50 (ACVR1^R206H) | Metabolism HLM [1] | Metabolism MLM [2] | IC50 (ACVR1^WT) | Metabolism HLM (Min) [1] | Metabolism MLM (Min) [2] | IC50 (ACVRL1 [6]) | IC50 (ACVR1) | IC50 (ACVRL1 [7]) | inhibition of BMP2-induced luciferase activity [3] | suppression of BMP2-induced pSMAD1/5 activation, WT fibroblasts [4] | suppression of BMP2-induced pSMAD1/5 activation, FOP fibroblasts [5] |
| --- | --- | --- | --- | --- | --- | --- | --- | --- | --- | --- | --- | --- |
| CNC(=O)[C@H]1C[C@H](n2c(-c3cc(OC)c(OC)c(OC)c3)nc3ccc(C(=O)NCC4CCN(C)CC4)cc32)C1 [CDD-2282, 1-((1r,3r)-3-(methylcarbamoyl)cyclobutyl)-N-((1-methylpiperidin-4-yl)methyl)-2-(3,4,5-trimethoxyphenyl)-1H-benzo[d]imidazole-6-carboxamide] | > 40000 nM |  |  | > 40000 nM | 978 (16.3 h) Min | 220.4 (3.67 h) Min |  |  |  |  |  |  |
| CNC(=O)[C@H]1C[C@H](n2c(-c3cccc(OC)c3)nc3ccc(C(=O)NCCCN4CCN(c5ccccc5)CC4)cc32)C1 [CDD-2313, 2-(3-methoxyphenyl)-1-((1r,3r)-3-(methylcarbamoyl)cyclobutyl)-N-(3-(4-phenylpiperazin-1-yl)propyl)-1H-benzo[d]imidazole-6-carboxamide] | 3400 nM | 23 min | 8.6 min | 6170 nM |  |  |  |  |  |  |  |  |
| COc1cc(-c2nc3ccc(C(=O)NCCCN4CCN(c5ccccc5)CC4)cc3n2C2CCC2)cc(OC)c1OC [CDD-2315, 1-cyclobutyl-N-(3-(4-phenylpiperazin-1-yl)propyl)-2-(3,4,5-trimethoxyphenyl)-1H-benzo[d]imidazole-6-carboxamide] | 2600 nM | 7.8 min | 6.3 min | 560 nM |  |  |  |  |  | Potent inhibition | suppressed | suppressed |
| CNC(=O)[C@H]1C[C@H](n2c(-c3cc(F)cc(OC)c3)nc3ccc(C(=O)NCCCN4CCN(c5ccccc5)CC4)cc32)C1 [CDD-2340, 2-(3-fluoro-5-methoxyphenyl)-1-((1r,3r)-3-(methylcarbamoyl)cyclobutyl)-N-(3-(4-phenylpiperazin-1-yl)propyl)-1H-benzo[d]imidazole-6-carboxamide] | 9200 nM | 24.4 min | 7.1 min | 5300 nM |  |  |  |  |  | Potent inhibition | suppressed | suppressed |
| CNC(=O)[C@H]1C[C@H](n2c(-c3ccc(OC)c(OC)c3)nc3ccc(C(=O)NCCCN4CCN(c5cccc(C)c5C)CC4)cc32)C1 [CDD-2421, 2-(3,4-dimethoxyphenyl)-N-(3-(4-(2,3-dimethylphenyl)piperazin-1-yl)propyl)-1-((1r,3r)-3-(methylcarbamoyl)cyclobutyl)-1H-benzo[d]imidazole-6-carboxamide] | 2400 nM | 6 min | 3.7 min | 1240 nM |  |  |  |  |  |  |  |  |
| CNC(=O)[C@H]1C[C@H](n2c(-c3cc(OC)ccc3OC)nc3ccc(C(=O)NCCCN(C)C)cc32)C1 [CDD-2687, 2-(2,5-dimethoxyphenyl)-N-(3-(dimethylamino)propyl)-1-((1r,3r)-3-(methylcarbamoyl)cyclobutyl)-1H-benzo[d]imidazole-6-carboxamide] | > 40000 nM |  |  | > 40000 nM |  |  | 78.7 nM | 25.1 nM | > 40000 nM |  |  |  |
| COc1cc(-c2nc3ccc(C(=O)NCCCN4CCN(c5ccccn5)CC4)cc3n2C2CCC2)cc(OC)c1OC [CDD-2787, 1-cyclobutyl-N-(3-(4-(pyridin-2-yl)piperazin-1-yl)propyl)-2-(3,4,5-trimethoxyphenyl)-1H-benzo[d]imidazole-6-carboxamide] | 705 nM | 9.8 min | 3.3 min | 473 nM |  |  |  |  |  | Potent inhibition | suppressed | suppressed |
| COc1cc(-c2nc3ccc(C(=O)NCCCN4CCN(c5ccccc5)C(=O)C4)cc3n2C2CCC2)cc(OC)c1OC [CDD-2790, 1-cyclobutyl-N-(3-(3-oxo-4-phenylpiperazin-1-yl)propyl)-2-(3,4,5-trimethoxyphenyl)-1H-benzo[d]imidazole-6-carboxamide] | 2270 nM | 9.0 min | 6.1 min | 1820 nM |  |  |  |  |  |  |  |  |

Continued, in another order:

| IC50 (ACVR1^R206H) | Metabolism HLM [1] | Metabolism MLM [2] | IC50 (ACVR1^WT) | Metabolism HLM (Min) [1] | Metabolism MLM (Min) [2] | IC50 (ACVRL1 [6]) | IC50 (ACVR1) | IC50 (ACVRL1 [7]) | SMILES | inhibition of BMP2-induced luciferase activity [3] | suppression of BMP2-induced pSMAD1/5 activation, WT fibroblasts [4] | suppression of BMP2-induced pSMAD1/5 activation, FOP fibroblasts [5] |
| --- | --- | --- | --- | --- | --- | --- | --- | --- | --- | --- | --- | --- |
| > 40000 nM | 70.7 min | 48 min | > 40000 nM |  |  |  |  |  | CNC(=O)[C@H]1C[C@H](n2c(-c3cc(OC)c(OC)c(OC)c3)nc3ccc(C(=O)NCCCN4CCN(C)CC4)cc32)C1 [CDD-2280, 1-((1r,3r)-3-(methylcarbamoyl)cyclobutyl)-N-(3-(4-methylpiperazin-1-yl)propyl)-2-(3,4,5-trimethoxyphenyl)-1H-benzo[d]imidazole-6-carboxamide] |  |  |  |
| > 40000 nM |  |  | > 40000 nM | 769.1 (12.81 h) Min | 807.1 (13.4 h) Min |  |  |  | CNC(=O)[C@H]1C[C@H](n2c(-c3cc(OC)c(OC)c(OC)c3)nc3ccc(C(=O)NCCCN(C)C)cc32)C1 [CDD-2281, N-(3-(dimethylamino)propyl)-1-((1r,3r)-3-(methylcarbamoyl)cyclobutyl)-2-(3,4,5-trimethoxyphenyl)-1H-benzo[d]imidazole-6-carboxamide] |  |  |  |
| 13400 nM |  |  | 10700 nM | 194 (3.2 h) Min | 78.5 (1.3 h) Min |  |  |  | COc1cc(F)cc(-c2nc3ccc(C(=O)NCCCN(C)C)cc3n2C2CCC2)c1 [CDD-2617, 1-cyclobutyl-N-(3-(dimethylamino)propyl)-2-(3-fluoro-5-methoxyphenyl)-1H-benzo[d]imidazole-6-carboxamide] |  |  |  |
| 29600 nM |  |  | 28200 nM |  |  | 72.2 nM | 34.3 nM | > 40000 nM | CNC(=O)[C@H]1C[C@H](n2c(-c3cc(OC)cc(OC)c3)nc3ccc(C(=O)NCCCN(C)C)cc32)C1 [CDD-2686, 2-(3,5-dimethoxyphenyl)-N-(3-(dimethylamino)propyl)-1-((1r,3r)-3-(methylcarbamoyl)cyclobutyl)-1H-benzo[d]imidazole-6-carboxamide] |  |  |  |
| 849 nM | 38.3 min | 10 min | 358 nM |  |  |  |  |  | COc1cc(-c2nc3ccc(C(=O)NCCCN4CCN(C5CCCCC5)CC4)cc3n2C2CCC2)cc(OC)c1OC [CDD-2792, 1-cyclobutyl-N-(3-(4-cyclohexylpiperazin-1-yl)propyl)-2-(3,4,5-trimethoxyphenyl)-1H-benzo[d]imidazole-6-carboxamide] |  |  |  |
